Test results reported in patent publication US7641914B2, “Acid-sensitive compounds, their preparation and uses” (Gencell, S.A., priority 2000, dated 2010).

Key:
DNA = assay: Ethidium bromide fluorescence test of DNA compaction and release in acidic medium; assay type: physicochemical; settings: for variation in fluorescence over time (EtBr) / release of DNA over time (increase in EtBr fluorescence): pH 5, 37° C.; for variation in fluorescence over time (EtBr): 0.4 nmol lipid/pg of DNA, DNA not completely compacted; for release of DNA over time (increase in EtBr fluorescence): 1.7 and 6.0 nmol lipid/μg of DNA, complete compaction
Description: This was easily shown by a fluorescence test with ethidium bromide (EtBr): the absence of fluorescence reflects the absence of free DNA, that means that the DNA was compacted.
The DNA was brought into contact with increasing quantities of control cationic lipid or of acid-sensitive compound A Syn or Trans, by mixing an equal volume of lipid solutions of different titers with the DNA solutions. Samples of 800 μl of DNA complexes having a concentration of […] were thus prepared in a sodium chloride solution at 150 mM with increasing quantities of control cationic lipid or of acid-sensitive compound A Syn or Trans.
At time t=0, 200 μl of buffer having a concentration of 0.1 mol/l at pH 5 were added to these samples and the samples were stored in an oven at 37° C. The fluorescence with ethidium bromide (EtBr) was measured over time (measurement at 20° C.) using a FluoroMax-2 (Jobin Yvon-Spex), with excitation and emission wavelengths of 260 nm and 590 nm respectively. The slit widths for excitation and for emission were set at 5 nm. The fluorescence value was recorded after addition of 3 μl of ethidium bromide at 1 g/l per ml of DNA/cationic lipid or DNA/acid-sensitive compound solution (at 0.01 mg of DNA/ml).

HeLa cells = assay: In vitro transfection of HeLa cells, luciferase activity; assay type: cell-based, human; settings: charge ratios 1.0 to 10.0 nmol lipid/μg DNA
Description: This study was carried out at 4 different charge ratios: 1.0 or 4.0 or 6.0 or 10.0 nmol of lipid/μg of DNA. Each of these conditions was tested with and without fetal calf serum (A+ or − Serum a))
Culture of the cells: HeLa cells (American Type Culture Collection (ATCC) Manassas, Va., USA) derived from a human cervical epithelium carcinoma, were cultured in the presence of a medium of the MEM (“minimum essential medium”) type with addition of 2 mM L-glutamine, 50 units/ml of penicillin, and 50 units/ml of streptomycin. The medium and the additives were obtained from Gibco/BRL Life Technologies/InvitroGen (Gaithersburg, Md., USA). The cells were cultured in flasks at 37° C. and at 5% carbon dioxide in an incubator. […]
An aliquot of 10 μl of supernatant of the lysate centrifuged (12,000×g) for 5 minutes at 4° C. was measured with the Wallac Victor2 luminometer (1420 Multilabel counter).
The luciferase activity was assayed by the emission of light in the presence of luciferin, of coenzyme A and of ATP for 10 seconds and expressed relative to 2000 treated cells. The luciferase activity was thus expressed as Relative Light Unit (“RLU”) and normalized with the concentration of proteins in the sample obtained using a Pierce BCA kit (Rockford, Ill., USA).

Q: `CCCCCCCCCCCCCCCCCCN(CCCCCCCCCCCCCCCCCC)C(=O)CCCOC1OCC(CNC(=O)CNCCCNCCCCNCCCN)O1` (stereo not drawn) [Compound A Syn, 4-{4-[(2-{3-[4-(3-amino-propylamino)butylamino]propyl-amino}acetylamino)methyl]-[1,3]dioxolan-2-yloxy}-N,N-dioctadecylbutyramide tetraacetate] was tested. Which “variation in fluorescence over time (EtBr)” value (DNA) did it give?
A: The value was “no significant variation in fluorescence”.

Q: What about the “release of DNA over time (increase in EtBr fluorescence)” value (DNA) of the same molecule?
A: The value was “released the DNA over time”.

Q: What about the “time of release of DNA after the addition of acid” value (DNA; pH 5 and 37° C.) of the same molecule?
A: The value was “a few hours”.

Q: What about the transfection activity (HeLa cells) of the same molecule?
A: Its transfection activity is “high transfection activity”.

Q: `CCCCCCCCCCCCCCCCCCN(CCCCCCCCCCCCCCCCCC)C(=O)CNC(=O)CNCCCNCCCCNCCCN` [control cationic lipid, H2N—(CH2)3—NH—(CH2)4—NH—(CH2)3—NH—CH2—CO-Gly-N[(CH2)17—CH3]2, reference compound] was tested. Which “variation in fluorescence over time (EtBr)” value (DNA) did it give?
A: The value was “no significant variation in fluorescence”.

Q: What about the “release of DNA over time (increase in EtBr fluorescence)” value (DNA) of the same molecule?
A: Its value is “not the case”.

Q: And the transfection activity (HeLa cells)?
A: The transfection activity was “high transfection activity”.
